Reference: ChEMBL document CHEMBL1156448, “Identification of an efficacy switch region in the ghrelin receptor responsible for interchange between agonism and inverse agonism” (J Biol Chem, 2007)

Assays:
[1] = target: T1, Growth hormone secretagogue receptor type 1 (Homo sapiens, UniProt Q92847); experiment: Displacement of [35S]MK677 from human ghrelin receptor expressed in african green monkey COS7 cells; format: cell-based, COS-7
[2] = target: T1, Growth hormone secretagogue receptor type 1; experiment: Inverse agonist activity at human ghrelin receptor expressed in african green monkey COS7 cells assessed as constitutively stimulated inositol phosphate accumulation; format: functional, cell-based, COS-7

T1 sequence (Q92847 whole entry): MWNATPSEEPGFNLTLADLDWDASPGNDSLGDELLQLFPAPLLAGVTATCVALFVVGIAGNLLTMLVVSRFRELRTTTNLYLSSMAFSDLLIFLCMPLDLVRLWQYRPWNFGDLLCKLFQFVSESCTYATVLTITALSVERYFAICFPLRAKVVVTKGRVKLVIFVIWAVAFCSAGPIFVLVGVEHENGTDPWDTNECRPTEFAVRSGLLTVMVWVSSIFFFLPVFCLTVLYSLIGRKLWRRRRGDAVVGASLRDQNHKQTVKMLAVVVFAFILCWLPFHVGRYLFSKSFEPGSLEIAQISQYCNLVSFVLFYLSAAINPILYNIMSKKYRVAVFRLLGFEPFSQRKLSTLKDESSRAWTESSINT

IC50 [1] [nM]	IC50 [2] [nM]	SMILES
12	21	CC(C)C[C@H](NC(=O)[C@H](CC(C)C)NC(=O)[C@@H](Cc1c[nH]c2ccccc12)NC(=O)[C@H](Cc1ccccc1)NC(=O)[C@@H](Cc1c[nH]c2ccccc12)NC(=O)[C@@H](N)CCCN=C(N)N)C(N)=O
58	68	CC(C)C[C@H](NC(=O)[C@H](CC(C)C)NC(=O)[C@@H](Cc1c[nH]c2ccccc12)NC(=O)[C@H](Cc1ccccc1)NC(=O)[C@@H](Cc1c[nH]c2ccccc12)NC(=O)[C@@H](N)Cc1cnc[nH]1)C(N)=O
